# Experimental data published in patent US11192921B2 (priority 2017, dated 2021).
# Several values for one entry are separate records, joined by “and”; a condition that tells them apart may be missing. Identical values can stand only once. Like-named read-outs stand apart in the source and are kept apart here. Marks after values point to notes of the source that are not given here.
# Experiments:
# male BALB/c mice [1] = assay: cancer-induced pain (CIP) model, thermosensitive test; type: in vivo
# Method: Influence of Analgesic Polypeptides on Neuralgia in a Cancer-Induced Pain (CIP) Model
# A number of male BALB/c mice each weighing 25-30 g were used.
# Von Fery monofilament; a microsyringe, 5 mg/mL solutions of polypeptides I, II and II I; normal saline.
# (§1) BALB/c mice were taken, and the right sciatic nerve was exposed; ascites containing 5×10^4 Meth A sarcoma cells were injected into the proximal nerve near the sciatic nerve trochanter far from the tendon branch of the posterior biceps, the wound was closed, and the same volume of normal saline was injected into the left side by performing a sham operation.
# 1.3.1 Thermosensitive Test
# On the 4th, 7th, 10th and 14th days after inoculation, the latency of foot lifting caused by heat radiation stimulation to animals was observed, and the heat radiation intensity was adjusted to cause the latency of foot lifting of normal mice to be (10±2) s.
# All data was expressed as M±SD and subjected to one-way ANOVA.
# SD rats = assay: pain threshold of trigeminal nerve (trigeminal neuralgia model); type: in vivo; conditions: for highest pain threshold on the operative side / pain threshold on the opposite side: 3 h after injection; for Pain threshold: intraperitoneal
# Female Kunming mice [2] = test system: Female Kunming mice
# Kunming mice [3] = conditions: mouse, in vivo
# Female Kunming mice [4] = test system: Female Kunming mice; remark: listed apart in the source
# Female Kunming mice [5] = test system: Female Kunming mice; remark: listed apart in the source
# Kunming mice [6] = type: in vivo
# Female Kunming mice [7] = type: in vivo
# male BALB/c mice [8] = assay: cancer-induced pain (CIP) model, gross behavior; type: in vivo; conditions: 14th day after inoculation
# Method: as §1
# On the 4th, 7th, 10th and 14th days after inoculation, spontaneous pain and foot drop and the like occurred before the occurrence of thermal sensitivity and mechanical pain sensitivity behaviors, […]
# [9] = 50 μg/kg, injected subcutaneously
# [10] = 100 μg/kg, injected subcutaneously
substance,measurement,setting,value
Gly-Ser-Cys-Ser-Thr-Pro-Pro-d{Cys}-Val-Leu-Tyr-Ser [Polypeptide I],increase of the latency of foot lifting,male BALB/c mice [1]; 14th day after inoculation,particularly significant
same,Latency of foot lifting before administration,"male BALB/c mice [1]; heat radiation stimulation, before administration",10.56 ± 0.89
same,Latency (D) of foot lifting after administration,"male BALB/c mice [1]; heat radiation stimulation, day 4",10.01 ± 0.23
same,Latency (D) of foot lifting after administration,"male BALB/c mice [1]; heat radiation stimulation, day 7",9.26 ± 0.99
same,Latency (D) of foot lifting after administration,"male BALB/c mice [1]; heat radiation stimulation, day 10",8.56 ± 0.23
same,Latency (D) of foot lifting after administration,"male BALB/c mice [1]; heat radiation stimulation, day 14",7.44 ± 0.85
same,animal reaction thresholds,"SD rats; 50 μg/kg and 100 μg/kg, injected subcutaneously",significantly increased
same,time the pain thresholds lasted,SD rats; [9],1 h
same,highest pain threshold on the operative side,SD rats; [9],2.3 ± 0.5 g
same,pain threshold on the opposite side,SD rats; [9],1.2 ± 0.2 g
same,time the effect on the operative side lasted,SD rats; [10],about 8 h
same,highest pain threshold on the operative side,SD rats; [10],7.4 ± 0.9 g
same,pain threshold on the opposite side,SD rats; [10],3.2 ± 1.3 g
same,pain threshold change,"SD rats; 300 μg/kg, subcutaneously",not significantly increased
same,Pain threshold,"SD rats; Dose 50 (μg/kg), 0 h",25.44 ± 0.23 s
same,Pain threshold,"SD rats; Dose 50 (μg/kg), 1 h",26.35 ± 0.65 s
same,Pain threshold,"SD rats; Dose 50 (μg/kg), 2 h",26.89 ± 0.23 s
same,Pain threshold,"SD rats; Dose 50 (μg/kg), 3 h",27.56 ± 0.56 s
same,Pain threshold,"SD rats; Dose 50 (μg/kg), 4 h",26.45 ± 0.78 s
same,Pain threshold,"SD rats; Dose 50 (μg/kg), 5 h",25.89 ± 0.12 s
same,Pain threshold,"SD rats; Dose 100 (μg/kg), 0 h",25.11 ± 0.56 s
same,Pain threshold,"SD rats; Dose 100 (μg/kg), 1 h",27.86 ± 0.95 s
same,Pain threshold,"SD rats; Dose 100 (μg/kg), 2 h",28.12 ± 0.65 s
same,Pain threshold,"SD rats; Dose 100 (μg/kg), 3 h",29.46 ± 0.61 s
same,Pain threshold,"SD rats; Dose 100 (μg/kg), 4 h",26.43 ± 0.62 s
same,Pain threshold,"SD rats; Dose 100 (μg/kg), 5 h",25.68 ± 0.33 s
same,Pain threshold,"SD rats; Dose 300 (μg/kg), 0 h",26.65 ± 0.41 s
same,Pain threshold,"SD rats; Dose 300 (μg/kg), 1 h",30.56 ± 0.11 s
same,Pain threshold,"SD rats; Dose 300 (μg/kg), 2 h",30.53 ± 0.62 s
same,Pain threshold,"SD rats; Dose 300 (μg/kg), 3 h",29.56 ± 0.12 s
same,Pain threshold,"SD rats; Dose 300 (μg/kg), 4 h",28.15 ± 0.32 s
same,Pain threshold,"SD rats; Dose 300 (μg/kg), 5 h",27.15 ± 0.65 s
same,Movement distances of mice in open field tests,Female Kunming mice [2]; 1 h,20.39 ± 1.21^
same,Movement distances of mice in the center area in open field tests,Female Kunming mice [2]; 1 h,20.39 ± 1.21^
same,Movement distances of mice in the peripheral area in open field tests,Female Kunming mice [2]; 1 h,20.39 ± 1.21^
same,Number of entrances to the center area in open field tests,Female Kunming mice [2]; 1 h,20.39 ± 1.21^
same,Number of entrances to the peripheral area in open field tests,Female Kunming mice [2]; 1 h,20.39 ± 1.21^
same,Residence time in the center area in open field tests,Female Kunming mice [2]; 1 h,20.39 ± 1.21^ s
same,Residence time in the peripheral area in open field tests,Female Kunming mice [2]; 1 h,20.39 ± 1.21^ s
same,Movement distances of mice in open field tests,Female Kunming mice [2]; 24 h,18.99 ± 1.48 m
same,Movement distances of mice in the center area in open field tests,Female Kunming mice [2]; 24 h,18.99 ±1.48 m
same,Movement distances of mice in the peripheral area in open field tests,Female Kunming mice [2]; 24 h,18.99 ± 1.48 m
same,Number of entrances to the center area in open field tests,Female Kunming mice [2]; 24 h,18.99 ± 1.48
same,Number of entrances to the peripheral area in open field tests,Female Kunming mice [2]; 24 h,18.99 ± 1.48
same,Residence time in the center area in open field tests,Female Kunming mice [2]; 24 h,18.99 ± 1.48 s
same,Residence time in the peripheral area in open field tests,Female Kunming mice [2]; 24 h,18.99 ± 1.48 s
same,Movement distances of mice in open field tests,Female Kunming mice [2]; Time 0,20.57 ± 1.65 m
same,Movement distances of mice in the center area in open field tests,Female Kunming mice [2]; Time 0,20.57 ±1.65 m
same,Movement distances of mice in the peripheral area in open field tests,Female Kunming mice [2]; Time 0,20.57 ± 1.65 m
same,Number of entrances to the center area in open field tests,Female Kunming mice [2]; Time 0,20.57 ± 1.65
same,Number of entrances to the peripheral area in open field tests,Female Kunming mice [2]; Time 0,20.57 ± 1.65
same,Residence time in the center area in open field tests,Female Kunming mice [2]; Time 0,20.57 ± 1.65 s
same,Residence time in the peripheral area in open field tests,Female Kunming mice [2]; Time 0,20.57 ± 1.65 s
same,side effects compared with conotoxin (open field),"Female Kunming mice [2]; mouse, in vivo, ip",lower side effects
same,various indexes in open field experiments compared with the normal saline group,"Female Kunming mice [2]; mouse, in vivo, ip",no significant difference
same,analgesic effects in formalin-induced pain experiments,Kunming mice [3],good analgesic effects
same,"cumulative foot licking time, Phase I",Kunming mice [3],46.44 ± 10.28*^
same,"cumulative foot licking time, Phase II",Kunming mice [3],42.10 ± 14.32*^
same,Movement duration of mice in forced swimming tests,Female Kunming mice [4]; 1 h,20.39 ± 1.21^ s
same,Movement duration of mice in forced swimming tests,Female Kunming mice [4]; 24 h,18.99 ± 1.48 s
same,Movement duration of mice in forced swimming tests,Female Kunming mice [4]; Time 0,20.57 ± 1.65 s
same,toxic side effects compared with the conotoxin (forced swimming),"Female Kunming mice [4]; mouse, in vivo, ip",lower toxic side effects
same,Duration of the immobility of mice in tail suspension tests,Female Kunming mice [5]; 1 h,20.39 ± 1.21^ s
same,Duration of the immobility of mice in tail suspension tests,Female Kunming mice [5]; 24 h,18.99 ± 1.48 s
same,Duration of the immobility of mice in tail suspension tests,Female Kunming mice [5]; Time 0,20.57 ± 1.65 s
same,data of tail suspension test compared with the normal saline group,"Female Kunming mice [5]; mouse, in vivo, ip",no significant difference
same,toxic side effects compared with the conotoxin (tail suspension),"Female Kunming mice [5]; mouse, in vivo, ip",lower toxic side effects
same,Pain threshold (tail flick),Kunming mice [6]; 0 min,2.31 ± 0.12 s
same,Pain threshold (tail flick),Kunming mice [6]; 15 min,2.12 ± 0.21^∧∧ s
same,Pain threshold (tail flick),Kunming mice [6]; 30 min,2.12 ± 0.12 s
same,Pain threshold (tail flick),Kunming mice [6]; 45 min,3.22 ± 0.12^∧ s
same,Pain threshold (tail flick),Kunming mice [6]; 60 min,2.12 ± 0.21*^∧ s
same,Pain threshold (tail flick),Kunming mice [6]; 75 min,2.12 ± 0.12 s
same,Pain threshold (tail flick),Kunming mice [6]; 90 min,2.32 ± 0.14 s
same,difference from the conotoxin group during a time period (^^P<0.01),"Kunming mice [6]; mouse, in vivo",significantly different from the conotoxin group
same,Pain threshold,Female Kunming mice [7]; 0 min,28.32 ± 0.21 s
same,Pain threshold,"Female Kunming mice [7]; mouse, in vivo, ip",25.21 ± 0.42^∧∧ s and 31.32 ± 0.32*^∧ s and 24.23 ± 0.42^∧ s and 21.39 ± 0.45^∧ s and 29.23 ± 0.42 s and 23.44 ± 0.24 s
same,heat thresholds of mice compared with the normal saline negative control group,"Female Kunming mice [7]; mouse, in vivo, ip",effectively increase the heat thresholds of mice
same,left foot lifting behavior,male BALB/c mice [8],obviously observed
